Data set [1] relates to α-SMA, TGF-β1 and MMP2 protein levels in LX-2 cells. The data set can be described thus: In vitro antifibrotic effects, Western blot of hepatic fibrogenic markers after TGFβ1 stimulation. It counts as cell-based, human. Conditions: IMB16-4 2 µM, TGFβ1 2 ng/mL, 24 h. How it is done:
After ultraviolet sterilization, raw IMB16-4, IMB16-4-MSNs and MSNs were suspended in water, respectively. Another group of raw IMB16-4 was suspended in DMSO. The concentration of IMB16-4 was 2 mM. Then, 2µL of solution containing IMB16-4 was added into 2 mL of serum-free culture with TGFβ1. LX-2 cells were cultured as described above. LX-2 cells were seeded in a 6-well plate, cultured in DMEM/GlutaMAX I, containing 10% fetal bovine serum (FBS) in 5% CO2 atmosphere at 37 °C. Serum-free culture was replaced until the cells reached 90 ≈ 95% confluence. After 24 h, cells were treated with TGFβ1 (2 ng/mL) and IMB16-4 (2 µM) for 24 h. Then, cells were washed with phosphate buffer saline (PBS) and protein was extracted in radio-immunoprecipitation assay (RIPA) buffer. Then mixture was centrifuged at 12,000 rpm at 4 °C for 20 min. The supernatant was collected, and the total protein was determined using the bicinchoninic acid (BCA) protein assay kit (Beyotime Biotechnology, China). Samples were applied to the 10% SDS-PAGE gel. Then, the protein bands were transferred to a polyvinylidene difluoride (PVDF) membrane (Millipore Corp, Atlanta, GA, USA) and the membrane was blocked for 1 h with 5% nonfat milk. […] The protein bands were analyzed on an imager (Tanon5200, China).

Data set [2] in a line: Equilibrium concentration (solubility) study in water. It counts as physicochemical. Particulars: distilled water; raw IMB16-4 in water, 25 ± 2 °C, equilibrium about 24 h. The procedure: An excess amount of raw IMB16-4 was added into 5 mL of distilled water at 25 ± 2 °C. The raw IMB16-4 solution at equilibrium time (about 24 h) was withdrawn and filtered using a 0.22 μm membrane. The subsequent filtrate was diluted with internal standard (4′-Chloroacetanilide) acetonitrile solution and analyzed by HPLC-MS/MS analysis (Thermo LTQ XL, USA). The standard curve for IMB16-4 was the linear (R^2 > 0.992) over the concentration range of 0.3~1200.0 ng/mL. The quantitative ion pair of IMB16-4 and internal standard quantitative were m/z = 499.9/196.0 and m/z = 168.04/126.1, respectively.

Data set [3] in a line: Oral pharmacokinetics study. The format is in vivo, Sprague–Dawley (SD) rats. Conditions: SD rats, oral gavage 100 mg/kg. The procedure:
The mice were maintained under a specific pathogen-free (SPF) environment with a 12 h light/dark cycle. SD rats (body weight 200 ± 20 g) were fasted overnight and divided into two groups. Raw IMB16-4 and IMB16-4-MSNs were given orally by gavages at a dose of 100 mg/kg, respectively. Before administering, both IMB16-4-MSNs and raw IMB16-4 were dispersed in 0.5% CMC-Na aqueous solution, respectively. Blood samples were collected from the eye socket vein at time points of 0.17, 0.5, 1, 2, 3, 4, 6, 8 and 12 h after dosing. Plasma samples were collected by centrifuging at 3000 rpm for 10 min and were then stored at −20 °C until analysis. Plasma samples were mixed with internal standard (4′-Chloroacetanilide) acetonitrile solution. Then, the mixture was vortex-mixed for 10 s. After centrifugation at 15,000 rpm for 10 min, the supernatant was used for HPLC-MS/MS analysis (AB SCIEX 6500 Qtrap, USA). The condition of the capillary voltage was −4500 V. The temperature was 500 °C. The mobile phase comprised acetonitrile and 10 mM of ammonium acetate aqueous solution. Analysis was carried out on an Xselect HSS T3 column (2.1 × 100 mm, 2.5 μm, Waters) in gradient elution. The column temperature was 40 °C and the flow rate was 0.3 mL/min. The standard curve for IMB16-4 was the linear (R^2 > 0.992) over the concentration range of 4~2048 ng/mL. The quantitative ion pairs of IMB16-4 and internal standard quantitative were m/z = 500.0/195.7 and m/z = 168.0/126.1, respectively. The pharmacokinetic parameters were obtained using statistic software DAS2.0.

Data set [4] can be described thus: In vitro dissolution, USP II paddle method. It counts as physicochemical. Particulars: release medium, 12 h, 37 °C, 3% SDS. The procedure:
Dissolution studies were conducted using a USP II paddle method (100 rpm, 37 °C, and 900 mL dissolution medium) with a dissolution tester (ZRS-8LD, China). The release of IMB16-4 and IMB16-4-MSNs was performed in pH 1.0 hydrochloric acid solution and pH 6.8 phosphate buffer solutions, containing 3% (w/v) SDS, respectively. All release studies were carried out in triplicate. At predetermined time intervals, 5 mL of sample solution was withdrawn from the release medium and filtered using a 0.22 μm membrane filter before running the HPLC analysis. An equivalent amount of fresh medium was added to maintain a constant dissolution volume.

The test system of another data set is NAFLD model rats. Set-up: method as in PMID 23752471, PMID 30573812. Particulars: NAFLD model rats ref 18, 19; cited from earlier work.

Data on 2 compounds can be found in paper PMC8000840, “Novel IMB16-4 Compound Loaded into Silica Nanoparticles Exhibits Enhanced Oral Bioavailability and Increased Anti-Liver Fibrosis In Vitro” (Molecules, 2021).

Values after ≈ are worked out from the molar mass of the structure shown.

As for `O=C(Nc1cc(Cl)c(Cl)c(Cl)c1)c1ccccc1NS(=O)(=O)c1cccc([N+](=O)[O-])c1` [IMB16-4, N-(3,4,5-trichlorophenyl)-2(3-nitrobenzenesulfonamido) benzamide], the “protein levels of α-SMA, TGF-β1 and MMP2 (antifibrotic effect)” value in data set [1] (dissolved by DMSO) is on record as “showed potential anti-liver fibrosis effects. However, the differences are not significant”; in data set [1] (suspended in sterile water), “poor inhibition effect”. In data set [2], the solubility was 0.0432 ± 0.0091 µg/mL (≈ 0.0863 µM). The CLz/F in data set [3] is on record as 54.70 ± 23.57. Also, the time to peak (Tmax) in data set [3] (Sprague-Dawley, rat, plasma) came to 3.43 ± 1.4 h. The compound further returned a Cmax in data set [3] (Sprague-Dawley, rat, plasma, in 0.5% CMC-Na) of 180 ± 40 ng/mL. The AUC in data set [3] (Sprague-Dawley, rat, plasma, read-out: AUC0≈12 h) came to 1240 ± 310 ng·h/mL. Moreover, the MRT in data set [3] (Sprague-Dawley, rat, plasma, read-out: MRT0≈12 h) came out at 5.18 ± 0.77 h. In addition, the “amount of dissolved IMB16-4” value in data set [4] was “about 40%”.

With “N-(3,4-dichlorophenyl)-2-(3-trifluoromethoxy) benzamide [IMB17-15]”, the hepatoprotective effects entry in the data set with NAFLD model rats is “has hepatoprotective effects”.
